Key:
[1] = T-maze continuous alternation task (T-CAT) with solifenacin and otenzepad; format: in vivo, Male Swiss mice
Description: Evaluation of Cognition with Solifenacin and Otenzepad in the T-Maze Alternation Task in Mice The T-maze continuous alternation task (T-CAT) is useful as model for studying compounds with cognitive enhancing properties. The T-maze consists of 2 choice arms and 1 start arm mounted to a square centre. Manual doors are provided to close specific arms during the force choice alternation task. Male Swiss mice (4-6 weeks old), N=10 per treatment group were used, and were pre-treated with: • Solifenacin at the dose that blocked fecal pellet excretion in Experiment 2 of Example 1. […] Mice were randomly assigned to one of the different experimental treatment groups. Each animal was identified by its group name, cage number, series (day) of experiment, and number (1 to 10) written with permanent ink on the tail. The T-maze apparatus is made of gray Plexiglas with a main stem (55 cm long×10 cm wide×20 cm high) and two arms (30 cm long×10 cm wide×20 cm high) positioned at 90 degree angle relative to the main stem. […] The percentage of alternation over the 14 free-choice trials was determined for each mouse and was used as an index of working memory performance. […] The drug-induced improvement of memory was calculated by setting the respective response of the saline/vehicle as 100% and that of the test group as 0% reversion. […]

[2] = cited from earlier work
[3] = Dose-response to otenzepad in a mouse model of diarrhea (fecal pellet count); format: in vivo, Male Swiss mice; conditions: increasing doses of otenzepad, T0 to T+4 h
Description: Male Swiss mice (4-6 weeks old), N=10 per treatment group were used, and treated with either vehicle (vehicle group) or increasing doses of otenzepad, a representative M2-antagonist. Mice were randomly assigned to one of two experimental groups (vehicle; or increasing doses of otenzepad). Each animal was identified by its group name, cage number, series (day) of experiment, and number (1 to 10) written with permanent ink on the tail. Mice were placed individually in cages without any bedding materials. During the experiment the number of fecal pellets was counted at different time-points, starting one hour before the time of the administration of the test compound (T0), as outlined below:
(§1) T−1 h to T0: counting of the accumulated fecal pellets excreted.
T0: administration of the test compound.
T0 to T+2 h: counting of the accumulated fecal pellets excreted.
T+2 h to T+4 h: counting of the accumulated fecal pellets excreted.
(§2) The total number of fecal pellets for each mouse was counted over time. An analysis of variance (ANOVA) was performed on the results. Fisher's Protected Least Significant Difference was used for pairwise comparisons; p values≤0.05 were considered significant. Grubbs' test (http://www.graphpad.com/quickcalcs/Grubbsl.cfm) was used to detect outliers for each parameter in each experimental group.

[4] = traumatic brain-injured rats; cited from earlier work
[5] = young animals; cited from earlier work
[6] = aged memory impaired rats; cited from earlier work
[7] = cited from earlier work; remark: listed apart in the source
[8] = clinical study; cited from earlier work
[9] = cited from earlier work; remark: listed apart in the source
[10] = in vivo; cited from earlier work
[11] = in vivo; cited from earlier work; remark: listed apart in the source
[12] = bilateral intrastriatal infusion, female rats; cited from earlier work
[13] = transdermal, rats, [14C] label; cited from earlier work
[14] = Antagonism of otenzepad-induced diarrhea in mice by solifenacin; format: in vivo, Male Swiss mice; conditions: solifenacin 2 to 40 mg/kg given 30 min before otenzepad
Protocol: Male Swiss mice (4-6 weeks old), N=10 per treatment group were used. Animals were pretreated with solifenacin (a representative peripheral muscarinic receptor antagonist) or vehicle; 30 minutes later animals were treated with otenzepad at a dose that caused diarrhea (as determined in Experiment 1). The dose of solifenacin ordinarily ranged from 2 to 40 mg/kg. Mice were placed individually in cages without any bedding materials. During the experiment the number of fecal pellets was counted at different time-points as outlined below:
as §1
T0: administration of solifenacin.
T30 min: administration of vehicle or otenzepad.
T 30 min to T 2.5 h: counting of accumulated fecal pellets excreted.
T+2.5 h to T+4.5 h: counting of accumulated fecal pellets excreted.
as §2, with “comparisons. The” for “comparisons;”, “value≤0.05” for “values≤0.05”, “(http//www at graphpad.com/quickcalcs/Grubbs.cfm)” for “(http://www.graphpad.com/quickcalcs/Grubbsl.cfm)”

[15] = absorbed amount; cited from earlier work

CCN(CC)CC1CCCCN1CC(=O)N1c2ccccc2C(=O)Nc2cccnc21 (racemic) [otenzepad, (±)11-[[2-[(diethylamino)methyl]-1-piperidinyl]acetyl]-5,11-dihydro-6H-pyrido[2,3-b][1,4]benzodiazepin-6-one]
cognition (percentage of alternation, working memory) ([1]; two doses of otenzepad, in the presence of solifenacin): improves cognition in a dose-dependent manner
subjects with mild and tolerable adverse events (palpitations, dry mouth, headache) ([2]; 270 to 810 mg/day): about 20%
muscarinic adverse effects ([2]; single oral doses of 120, 240 and 480 mg): does not induce manifest muscarinic adverse effects
diarrhea (number of fecal pellets) [3]: dose-dependently causes diarrhea

CCCC(C)(C)C(=O)N(CC)CCCC1CCN(CC(=O)N2c3ccc(Cl)cc3C(=O)Nc3cccnc32)CC1 [BIBN-99, 5,11-dihydro-8-chloro-11-[[4-[3-[(2,2-dimethyl-1-oxopentyl)ethylamino]propyl]-1-piperidinyl]acetyl]-6H-pyrido[2,3-b][1,4]benzodiazepin-6-one]
cognitive deficits [4]: attenuate cognitive deficits
scopolamine-induced amnesia [5]: improves scopolamine-induced amnesia
impaired ACh release and cognitive deficits [6]: reverses, in a dose-dependent manner

CCn1nnc(C2=CCCN(C)C2)n1 [Lu 25-109, 5-(2-ethyl-2H-tetrazol-5-yl)-1-methyl-1,2,3,6-tetrahydropyridine]
side effects ([7]; anorexia, nausea, diarrhea, increased sweating, increased with dose): prominent cholinergic side effects
primary and secondary variables versus placebo (antidementia efficacy) ([7]; three doses, 6 months, 496 patients with probable AD): no significant differences
fixed-dose Maximum Tolerated Dose [8]: 150 mg t.i.d.

COc1ccc([S+]([O-])c2ccc(C(C#N)N3CCN(C4CCCCC4)CC3)cc2)cc1 (stereo not drawn) [SCH 57790, 4-cyclohexyl-alpha-[4[[4-methoxyphenyl]sulphinyl]-phenyl]-1-piperazineacetonitrile]
brain acetylcholine release ([9]; in vivo): dose-related increase
cognitive performance ([9]; rodents and nonhuman primates): enhances cognitive performance

CCCS(=O)(=O)N1CCC(C)(N2CCN([C@@H](C)c3ccc(S(=O)(=O)c4ccc5c(c4)OCO5)cc3)[C@H](C)C2)CC1 [SCH 72788, 4-[4-[1(S)-[4-[(1,3-benzodioxol-5-yl)sulfonyl]phenyl]ethyl]-3(R)-methyl-1-piperazinyl]-4-methyl-1-(propylsulfonyl)piperidine]
ACh release [10]: increases ACh release
activity in a rodent model of cognition [10]: active

Cc1cccc(C(=O)N2CCC(N3CCC(C4(c5ccc(S(=O)(=O)c6cccc(Cl)c6)cc5)OCCO4)CC3)CC2)c1N [SCH-217443, 1′-(2-amino-3-methylbenzoyl)-4-[[[(3-chlorophenyl)sulfonyl]phenyl]ethylenedioxymethyl]-1,4′-bipiperidine]
activity in a rat model of cognition [11]: shows activity

COc1ccccc1CNCCCCCCNCCCCCCCCNCCCCCCNCc1ccccc1OC [methoctramine, N,N′-bis[6-[(2-methoxybenzyl)amino]hexyl]-1,8-octanediamine]
procedural memory performance [12]: improves procedural memory performance

CCN(CC)CC#CCOC(=O)C(O)(c1ccccc1)C1CCCCC1 (centres unmarked) [oxybutynin, 4-diethylaminobut-2-ynyl 2-cyclohexyl-2-hydroxy-2-phenylethanoate]
brain penetration [13]: presence of radiolabel in the brain

O=C(O[C@H]1CN2CCC1CC2)N1CCc2ccccc2[C@@H]1c1ccccc1 [solifenacin, (1S)-(3R)-1-azabicyclo[2.2.2]oct-3-yl 3,4-dihydro-1-phenyl-2(1H)-iso-quinolinecarboxylate]
effect of solifenacin on cognitive response to otenzepad (percentage of alternation) ([1]; solifenacin pre-treatment 30 min before otenzepad): did not affect cognitive response to otenzepad
antagonism of otenzepad-induced diarrhea (fecal pellets) [14]: dose-dependently antagonized the diarrhea

O=C(O[C@H]1C[C@H]2CC[C@@H](C1)[N+]21CCCC1)C(O)(c1ccccc1)c1ccccc1 [trospium chloride, azoniaspiro[33-benziloyloxy-(1α,5α)-nortropane-8,1′-pyrrolidine] (trospium) chloride]
average plasma half-life [15]: about 18 hours

Source: US20180360845A1, “MUSCARINIC COMBINATION OF A SELECTIVE M2-ANTAGONIST AND A PERIPHERAL NON-SELECTIVE ANTAGONIST FOR TREATING HYPOCHOLINERGIC DISORDERS” (CHASE PHARMACEUTICALS CORPORATION, priority 2015, published 2018)
